From ChEMBL document CHEMBL3045309, “Synthesis and cardiovascular activity of difluro-substituted hexahydroquinoline” (2008) come the findings set out here.

For orientation: inhibition means the percentage by which the read-out fell short of the control. High values mean strong suppression, low ones little suppression.

The subject of one assay is Thoracic artery. Description: Inhibition of potassium chloride-induced contraction in Rattus norvegicus albino (rat) thoracic artery at 10^-5 mol/l after 10 min. Format: functional.
The test system of a further assay is Ileum. Description: Inhibition of barium chloride-induced contraction inRattus norvegicus albino (rat) ileum at 10^-5 mol/l after 10 min. Format: functional.

For `COC(=O)C1=C(C)NC2=C(C(=O)C(C)(C)CC2)C1c1c(F)cccc1F` (stereo unspecified), the inhibition at 10 µM with Thoracic artery was determined as 23.6%; with Ileum, 79.4%.
For `CCOC(=O)C1=C(C)NC2=C(C(=O)C(C)(C)CC2)C1c1cc(F)ccc1F` (stereo unspecified), the inhibition at 10 µM in the assay with Thoracic artery worked out at 21.4%; with Ileum, 86.8%.
Regarding `COC(=O)C1=C(C)NC2=C(C(=O)CC(C)(C)C2)C1c1c(F)cccc1F` (stereo unspecified), the inhibition at 10 µM in the assay on Ileum was 74.6%.
`CCN(CC)C(=O)C1=C(C)NC2=C(C(=O)C(C)(C)CC2)C1c1cccc(F)c1F` (stereo unspecified): the inhibition at 10 µM in the assay with Thoracic artery was 37%; with Ileum it was 54.2%.
The corresponding values for `CCN(CC)C(=O)C1=C(C)NC2=C(C(=O)CC(C)(C)C2)C1c1cccc(F)c1F` (stereo unspecified) are 31.5% and 51.3%.
As to `COC(=O)C1=C(C)NC(C)=C(C(=O)OCCN(C)Cc2ccccc2)C1c1cccc([N+](=O)[O-])c1` (stereo unspecified) [NICARDIPINE], the inhibition at 10 µM with Thoracic artery came to 15.9%; with Ileum it was 70%.
